Measurements as given in US20240398788A1, “METHODS OF TREATING CANCER USING HSF1 PATHWAY INHIBITORS” (Institute of Cancer Research, priority 2021, published 2024).

Tests used:
[1] = tested on: OVISE ovarian cancer xenograft (ARID1A mutation); experiment: OVISE ovarian cancer xenograft efficacy study; format: in vivo, NCr nude mice; conditions: 35 mg/kg oral once daily, 5/7 days, 38/52 doses/study days
Text: (§1) The in vivo efficacy of Compound A was investigated in xenograft tumours in athymic nude mice with a focus on ovarian cancers. […] Of the seven cell lines, SK-OV-3; TOV-21G, OVISE, and IGROV1 were identified as harboring an ARID1A mutation, while OVCAR-5, ES-2, and RMG1 were ARID1A wildtype.
(§2) Once the tumours were established, mice were randomised into vehicle control and treatment groups. Mice in both the vehicle control and treatment groups that were removed during the course of the study due to spontaneous or treatment derived tumour regression, tumour growth approaching license limits, tumour ulceration or loss of condition were excluded from the final analysis of the mean tumour volume and standard error of the mean and up to the point they were removed from the study. The number of mice undergoing complete tumour regression in the treatment group is noted where applicable.
(§3) Two groups of 12 female NCr nude mice (3 groups of 10 for SK-OV-3) were injected with 3-5×10^6 cells of one of the above cancer cell lines, subcutaneously. […] Body weights were taken daily and animals were monitored for signs of toxicity. To evaluate drug levels the animals were euthanised in batches of 3 to 4 at 2, 6 and 24 hours after the last dose and terminal plasma and tumour samples collected for PK analysis.

[2] = tested on: OVCAR-5 ovarian cancer xenograft (ARID1A wildtype)
Text: as §2, §3

[3] = tested on: ES-2 ovarian cancer xenograft (ARID1A wildtype)
Text: as §2, §3

[4] = tested on: RMG1 ovarian cancer xenograft (ARID1A wildtype)
Text: as §2, §3

[5] = tested on: SK-OV-3 ovarian cancer xenograft (ARID1A mutation); experiment: SK-OV-3 ovarian cancer xenograft efficacy study; format: in vivo, athymic nude mice
Protocol: The tumor was identified as harboring an ARID1A mutation. […] Control and 35 mg/kg group n=10. Horizontal black line is 35 mg/kg group tumour volume on Day 0.
as §1, §2
(§4) Two groups of 12 female NCr nude mice (3 groups of 10 for SK-OV-3) were injected with 3-5×10^6 cells of one of the above cancer cell lines, subcutaneously. […] Body weights were taken daily and animals were monitored for signs of toxicity. […]

[6] = tested on: TOV-21G ovarian cancer xenograft (ARID1A mutation); experiment: TOV-21G ovarian cancer xenograft efficacy study; format: in vivo, NCr nude mice; conditions: TOV-21G xenograft, 35 mg/kg oral once daily, 5/7 days, 21/19 doses/study days
Protocol: The tumor was identified as harboring an ARID1A mutation. […] Vehicle control group n=8 and 35 mg/kg dose group n=11.
as §1, §2, §4

[7] = tested on: IGROV1 ovarian cancer xenograft (ARID1A mutation); experiment: IGROV1 ovarian cancer xenograft efficacy study; format: in vivo, NCr nude mice; conditions: 35 mg/kg oral once daily, intermittent, 11/15 doses/study days
Text: as §1, §2, §3

CCN1CCN(Cc2ccc3cc(C(=O)Nc4cc(NC(=O)c5ccc6c(c5)OCCO6)ccc4F)ccc3n2)CC1 [Compound A, N-(5-(2,3-Dihydrobenzo[b][1,4]dioxine-6-carboxamido)-2-fluorophenyl)-2-((4-ethylpiperazin-1-yl)methyl)quinoline-6-carboxamide]
TGI (%) [1]: 70%
efficacy in xenograft model (in words) ([2]; OVCAR-5 ARID1A wild type model, criterion TGI>50%): did not meet the criteria for efficacy
TGI (%) ([2]; OVCAR-5 xenograft, 35 mg/kg oral once daily, 5/7 days, 21/27 doses/study days): 27%
efficacy in xenograft model (in words) ([3]; ES-2 ARID1A wild type model, criterion TGI>50%): did not meet the criteria for efficacy
TGI (%) ([3]; ES-2 xenograft, 35 mg/kg oral once daily, 5/7 days, 12/17 doses/study days): 12%
inhibition of xenograft tumour growth (in words) ([4]; RMG1 ARID1A wildtype model): No inhibition of xenograft tumour growth
TGI (%) ([4]; RMG1 xenograft, 35 mg/kg oral once daily, 5/7 days, 15/19 doses/study days): −3.0%
sensitivity in xenograft models (in words) ([5]; SK-OV-3, ARID1A mutated, compared with the other six xenografts): most sensitive cell line in xenograft models
TGI (%) ([5]; SK-OV-3 xenograft, 35 mg/kg oral once daily, continuous, 20/20 doses/study days): 120%
TGI (%) [6]: 81%
TGI (%) [7]: 56%
